In US20200371122A1, “BIOMARKER FOR SENESCENT CELLS” (Buck Institute for Research on Aging, priority 2017, published 2020):

Legend:
MCF7 = test: Cleaved caspase-3 immunofluorescence in breast cancer cells; type: cell-based, human; conditions: p53-positive cell line, 10 μM, 3 days
Procedure: (§1) Human fetal lung fibroblasts (IMR-90) were cultured in Dulbecco's modified eagle medium (DMEM) supplemented with 10% FBS and penicillin/streptomycin. LL 29 (AnHa) cells were obtained from the ATCC and growth to confluence using the ATCC protocol, but were subcultured as described for IMR-90 before initiation of all experiments. Quiescence was induced by replacing culture media with media containing 0.2% FBS. MCF-7 and MDA-MB-231 breast cancer cells were cultured in RPMI supplemented with 10% FBS and penicillin/streptomycin. All cells were cultured at 3% O2, and used between 25 and 40 population doublings. All cells were mycoplasma free.
(§2) For EdU labeling, cells were cultured with EdU (10 μM) for 24 h, fixed in 4% buffered formalin for 10 min, washed in PBS, and permeabilized in 0.5% Triton X-100 for 30 min. Cells were treated as instructed by the manufacturer Life Technologies Cat #C10337). For immunofluorescence, cells were blocked in 10% normal goat serum for 30 min, washed, and incubated overnight in antibodies to Ki67 (Abcam) or cleaved caspase 3 (Cell Signaling). Cell were then washed, incubated in fluorescent secondary antibodies, and mounted using vectashield mounting medium with DAPI.

MDA-MB-231 = test: as above; type: cell-based, human; conditions: p53-mutant cell line, 10 μM, 3 days
Procedure: as §1, §2

[1] = test system: bleomycin-induced fibrosis; conditions: administration; Kida 2016, Genovese 2005; cited from earlier work

CCCCC/C=C/C=C1/C(=O)C=C[C@@H]1C/C=C\CCCC(=O)O [15d-PGJ2]
apoptosis (cleaved caspase-3) (MCF7): did not
apoptosis (cleaved caspase-3) (MDA-MB-231): induced apoptosis
bleomycin-induced fibrosis [1]: attenuate
